“And” between values parts separate entries of the source, which are not always exact repeats. Identical values can stand only once. “Also recorded” adds a separate entry of the source. Counter-ions that a name gives are not always drawn.
How the values were obtained:
[1] = Change of urine pH with time after taking basic fuchsine; assay type: in vivo, human; settings: for Urine pH value, Average: average of 9 patients, before drug 6; for Patent's urine pH value: individual patient (vegetarian), hydrochloride
Protocol: Therefore, the infected body, which is weakly acidic, is recovered to become weakly basic and this is beneficial to increasing the body's immunity such that Mycobacterium tuberculosis can be inhibited or removed. Because the integration of lysosomes inside macrophage with phagosome cannot be prevented, the bacteria can be removed. The changes in urine pH after taking basic fuchsine is illustrated in Table 2 and FIG. 1:
Remarks: The urine pH value reached the peak value at 2-3 hours after taking drug, and the peak period can sustain for 3-4 hours, then return to normal at 5-6 hours after taking drug.

[2] = system: blood cells; settings: human, in vivo, po
Source text: After taking basic fuchsine, the basic fuchsine activity over time can be observed through the blood phenomenon at different times.
Healthy individual as normal subject for observation
Patient recovered from the disease who volunteer to testing subject as volunteer subject
Binocular microscope xsp-12G model
Wright-Giemsa stain solution (available in the market)
Phosphate buffer (available in the market)
Obtain peripheral blood smear from normal subject and volunteer subject (normal control blood film, standby use)
Obtain peripheral blood smear from volunteer subject at different time after taking fuchsine (oral fuchsine blood film, standby use)
After the last blood sampling is complete, carrying staining together with the blood film before taking fuchsine orally of volunteer subject and the peripheral blood film of normal subject
V. observe oral fuchsine blood film under microscope with 100× objective lens (oil immersion) and 12.5× eyepiece, real object is viewed under magnification at 1250 times and the results are shown in Table 3.

[3] = system: Leprosy ulcers; assay: Basic Fuchsine for Treatment of Leprosy (patients); assay type: in vivo, human; settings: individual leprosy ulcer patient, treatment method External
[4] = system: M. tuberculosis; assay: Basic Fuchsine for treatment of Tuberculosis (patients); assay type: in vivo, human; settings: for Drug treatment after 1 month (TB status, symptoms): individual TB patient, capsule 500 mg (basic fuchsine:ground rice 3:2), 1-2 capsule/day oral, hydrochloride
Protocol: Basic Fuchsine for treatment of Tuberculosis
Dosage for patient: Capsule, 500 mg/capsule, where the weight ratio of basic fuchsine to ground rice is 3:2, each patient takes 1˜2 capsule/day.
Method of administration: Every morning, before breakfast, take the capsule, three month as one treatment course, see Table 5 for patients' records, see Table 6 for treatment results.
1. All patients were diagnosis and confirmed by standard TB hospital or TB prevention and treatment center, and all patients encountered disease recurrence after conventional standard drug treatment.
3. Before drug treatment with basic fuchsine drug, all patients have obvious symptoms: body weakness, discomfort, fever, cough, night sweat, ascites, blood spitting, blood vomiting, etc. (skeletal TB patient experience pain, some experience amenorrhea).

[5] = system: Mycobacterium tuberculosis; assay: Drug Susceptibility Testing on Lowenstein-Jensen medium; assay type: cell-based
Protocol: Drug Susceptibility Testing
(II) Culture Method: Lowenstein-Jensen medium (Improved method)
KH2PO4: 2.4 g; MgSO4.7H2O 0.24 g; magnesium citrate: 0.6 g; asparagine: 3.6 g; glycerin: 12 ml; distilled water: 600 ml; potato starch: 30 g; fresh whole egg liquid: 1000 ml; 2% malachite green solution: 20 ml
4. Drug: 2% basic fuchsine aqueous solution: 100 ml
Add water to KH2PO4, MgSO4.7H2O, magnesium citrate, asparagine and glycerin, dissolve through heating in a boiling water bath, then add potato starch and continue heating in water bath for 30 minutes, stir continuously to form a uniform paste. After cooling to about 60° C., add 1000 ml fresh whole egg liquid and 20 ml 2% malachite green solution, mix thoroughly and then filter by double-layered gauze, then dispensed into test tube with screw cap. 7 ml of the prepared solution is added to each test tube, then add the 2% basic fuchsine solution according to a specific proportion into the test tube (see Table 3 for the adding amount), then place the test tube into the 85% steam incubator for 90 minutes, cooling to 60° C. or below and then place the test tube inclinedly into the biological safety cabinet (also called purification station), thereby the culture medium is cooled to solidify and form an incline surface. Put 10^−2/ml living bacilli solution of Mycobacterium tuberculosis to the incline surface of the culture medium. The living bacilli solution for each tube is 0.1 ml. The concentration of bacilli solution in the culture medium is 10^−3 mg/ml. Place in Digital Biochemical Incubator to culture. After culture for 5 weeks, no bacteria growth refers to drug susceptibility, continue bacteria growth refers to drug non-susceptibility (See Table 4 for testing results).

[6] = Toxicity Test of Basic Fuchsine in guinea pigs; settings: guinea pigs, 8, 6 and 4 mg/kg body weight/d, once per day, 21 days
Source text: Materials: 24 white guinea pigs, purchased from Shenyang Pharmaceutical University, regular feeding; Basic fuchsine, from Tianjin Ju Hua Chemical Company Limited.
Matching and grouping of experimental animals: randomly divided into 4 groups (each group includes 6 counts, equal number of male and female), namely, control, high, medium, low fuchsine dosage group.
Method of administration: For each guinea pig, administered one time per day at a fixed time in the morning, the dosage for high, medium, low fuchsine dosage group are 8 mg/kg body weight/d, 6 mg/kg body weight/d, and 4 mg/kg body weight/d respectively; the drug administration period is 21 days, observe 3˜4 times per day, observe the guinea pig by spirit condition, appetite, gloss level of skin and hairs, physical condition, alertness and ability to escape.

Cc1cc(C(=C2C=CC(=N)C=C2)c2ccc(N)cc2)ccc1N [basic fuchsine, rosaniline hydrochloride]
Time at which urine pH value reached the peak value ([1]; after taking drug): 2-3 hours
Time of return of urine pH to normal ([1]; after taking drug): 5-6 hours
Time the urine pH peak period can sustain ([1]; after taking drug): 3-4 hours
Urine pH value, Average ([1]; After drug 1 h): 6.5
Urine pH value, Average ([1]; After drug 2 h): 7
Urine pH value, Average ([1]; After drug 3 h): 6.5
Urine pH value, Average ([1]; After drug 4 h): 6.5
Urine pH value, Average ([1]; After drug 5 h): 6
Urine pH value, Average ([1]; After drug 6 h): 6
Patent's urine pH value ([1]; After drug 1 h): 6 (2×) and 6.5 (5×) and 7 (2×)
Patent's urine pH value ([1]; After drug 2 h): 6.5 (2×) and 7 (5×) and 7.5 (2×)
Patent's urine pH value ([1]; After drug 3 h): 6 (2×) and 6.5 (5×) and 7 (2×)
Patent's urine pH value ([1]; After drug 4 h): 6 (2×) and 6.5 (5×) and 7 (2×)
Patent's urine pH value ([1]; After drug 5 h): 5.5 (2×) and 6 (5×) and 6.5 (2×)
Patent's urine pH value ([1]; After drug 6 h): 5.5 (2×) and 6 (5×) and 6.5 (2×)
Time remained inside the cell after absorption into blood [2]: 2 to 4 h
Remarks (outcome) [3]: Absorbed,
M. tuberculosis (acid-fast bacilli) in sputum after taking basic fuchsine for one month ([4]; TB patients): no M. tuberculosis is found in sputum
Patients' blood test for liver and kidney after taking basic fuchsine ([4]; TB patients): normal
TB symptoms after taking basic fuchsine for three months ([4]; TB patients): TB symptoms are eliminated
X-ray after taking basic fuchsine for six months ([4]; TB patients): recovery are confirmed through X-ray
Adverse reactions / side effect during the course of treatment ([4]; all cases): no side effect is observed in all cases
Drug treatment after 1 month (TB status, symptoms) ([4]; 1 capsule/day): TB Improved (−); also recorded: Improved TB (−)
Drug treatment after 1 month (TB status, symptoms) ([4]; 2 capsule/day): Pain reduced
Symptoms after taking basic fuchsine for one month ([4]; majority of TB patients): Symptoms are significantly reduces
Liver or kidney damage ([4]; patients taking drug for more than two years): no liver or kidney damages is observed
Recurrence ([4]; patients who are recovered): no single occurrence of recurrence
Testing results (bacteria growth) ([5]; Tube 1, 0.7 ml 2% basic fuchsine solution, final dilution factor 500, 5 weeks at 36 C): Grow
Testing results (bacteria growth) ([5]; Tube 2, 0.525 ml 2% basic fuchsine solution, final dilution factor 750, 5 weeks at 36 C): Grow
Testing results (bacteria growth) ([5]; Tube 3, 0.35 ml 2% basic fuchsine solution, final dilution factor 1000, 5 weeks at 36 C): Grow
Observation of spirit condition, appetite, skin and hairs, physical condition, alertness, ability to escape [6]: No changes is observed

Reference: patent publication US9782366B2, “Drug for killing acid-fast (red) bacillus” (priority 2013, dated 2017)
